Measured values reported in patent publication EP0117412A1, “Propene derivatives and their use as plant growth inhibitors” (DAICEL CHEMICAL INDUSTRIES, LTD., priority 1983, dated 1984).

Experiments:
Assay in all cases: Test of plant growth inhibiting action on sprouted seeds grown 7 days in a dispersion of wettable powder, visual evaluation
Assay type in all cases: in vivo
Echinochloa crus-galli = conditions: 168 h, 20% wettable powder dispersed in water, 25°C, lighted thermostat, visual grade 1-5, read-out: Growth Inhibition, Seed of Plant Echinochloa crus-galli (converted); for inhibition at 20 ppm: Concentration 20 ppm; for inhibition at 100 ppm: Concentration 100 ppm
Excerpt: (§1) Test Example (Test of Plant Growth Inhibiting Action)
(§2) 50 parts of talc, 25 parts of bentonite, 2 parts of Sorpol-9047 (surface active agent manufactured by Toho Chemical Co., Ltd.) and 3 parts of Sorpol-5039 (same as above) were thoroughly mixed to form a carrier. 50 weight parts of test compound was mixed with 200 weight parts of the carrier to prepare a 20% wettable powder. The wettable powder was dispersed in pure water to adjust the amount thereof to a definite concentration (see Table If to 17). Seeds of Oryza sativa or rice plant, Echinochloa crus-galli (a kind of millet) and Raphanus sativus (a kind of radish) all of which were forcedly sprouted in a separate dish, were put in the dispersion of wettable powder and grown for 7 days in a lighted thermostat at 25°C and the degree of growth was visually evaluated in accordance with the standard set forth below.
(§3) Standard of Evaluation in Growth Inhibition
(§4) • no influence: 1 • about 25% growth inhibition: 2 • about 50% growth inhibition: 3 • about 75% growth inhibition: 4 • about 100% growth inhibition: 5

Oryza sativa = conditions: 168 h, 20% wettable powder dispersed in water, 25°C, lighted thermostat, visual grade 1-5, read-out: Growth Inhibition, Seed of Plant Oryza sativa (converted); for inhibition at 20 ppm: Concentration 20 ppm; for inhibition at 100 ppm: Concentration 100 ppm
Excerpt: as §1, §2, §3, §4

Raphanus sativus = conditions: 168 h, 20% wettable powder dispersed in water, 25°C, lighted thermostat, visual grade 1-5, read-out: Growth Inhibition, Seed of Plant Raphanus sativus (converted); for inhibition at 20 ppm: Concentration 20 ppm; for inhibition at 100 ppm: Concentration 100 ppm
Excerpt: as §1, §2, §3, §4

| SMILES | inhibition at 20 ppm (Echinochloa crus-galli) [%] | inhibition at 100 ppm (Echinochloa crus-galli) [%] | inhibition at 20 ppm (Oryza sativa) [%] | inhibition at 100 ppm (Oryza sativa) [%] | inhibition at 20 ppm (Raphanus sativus) [%] | inhibition at 100 ppm (Raphanus sativus) [%] |
| --- | --- | --- | --- | --- | --- | --- |
| C=C(COc1ccc(Cl)cc1Cl)C(=O)OC [Compound 4-12] | 100 | 100 | 75 | 100 | 0 | 0 |
| C=C(COc1ccc(SC)cc1)C(=O)OC [Compound 4-19] | 100 | 100 | 100 | 100 | 0 | 50 |
| C=C(COc1ccccc1)C(=O)OC [Compound 4-10, methyl 2-methylene-3-phenoxypropionate] | 100 | 100 | 75 | 100 | 0 | 100 |
| C=C(CSCc1ccccc1)C(=O)OC [Compound 4-6] | 100 | 100 | 100 | 100 | 0 | 25 |
| C=C(CSc1ccc(C)cc1)C(=O)OC [Compound 4-3] | 100 | 100 | 75 | 100 | 0 | 0 |
| C=C(COc1cccc2c1CCCC2)C(=O)OC [Compound 4-17] | 100 | 100 | 75 | 100 | 0 | 0 |
| C=C(COc1ccc(C#N)cc1)C(=O)OC [Compound 4-22] | 100 | 100 | 100 | 100 | 50 | 100 |
| C=C(CSc1ccc(Cl)cc1)C(=O)OC [Compound 4-2, methyl 2-methylene-3-(4-chlorophenyl-thio)propionate] | 100 | 100 | 100 | 100 | 0 | 25 |
| C=C(CSc1ccc2ccccc2c1)C(=O)OC [Compound 4-5] | 100 | 100 | 75 | 100 | 0 | 0 |
| C=C(CSCc1ccc(Cl)cc1)C(=O)OC [Compound 4-9] | 100 | 100 | 100 | 100 | 0 | 50 |
| C=C(COc1cccc(C)c1)C(=O)OC [Compound 4-16] | 100 | 100 | 75 | 100 | 0 | 25 |
| C=C(CSC1CCCCC1)C(=O)OC [Compound 4-7] | 75 | 100 | 0 | 100 | 0 | 0 |
| C=C(CON(CC)CC)C(=O)OC [Compound 4-26] | 0 | 25 | 0 | 50 | 0 | 0 |
| C=C(COc1ccc(-c2ccccc2)cc1)C(=O)OC [Compound 4-13] | 25 | 25 | 0 | 0 | 0 | 0 |
| C=C(COc1ccc2c(C)cc(=O)oc2c1)C(=O)OC [Compound 4-25] | 75 | 100 | 25 | 100 | 0 | 25 |
| C=C(COc1ccc(F)cc1)C(=O)OC [Compound 4-15, methyl 2-methylene-3-(4-fluorophenoxy)propionate] | 75 | 100 | 50 | 100 | 0 | 50 |
| C=C(CSc1ccccn1)C(=O)OC [Compound 4-8] | 0 | 25 | 0 | 50 | 0 | 0 |
| C=C(COc1ccc(Cl)cc1C)C(=O)OC [Compound 4-11] | 100 | 100 | 75 | 100 | 0 | 25 |
| C=C(COc1ccc(C=Cc2ccccc2)cc1)C(=O)OC [Compound 4-28] | 75 | 75 | 25 | 25 | 0 | 0 |
| C=C(COc1ccc(C(F)(F)F)cc1)C(=O)OC [Compound 4-21] | 0 | 100 | 0 | 100 | 25 | 25 |
| C=C(CSc1ccc(OC)cc1)C(=O)OC [Compound 4-4] | 100 | 100 | 100 | 100 | 0 | 25 |
| C=C(CSc1ccccc1)C(=O)OC [Compound 4-1, methyl 2-methylene-3-(phenylthio)propionate] | 100 | 100 | 100 | 100 | 0 | 25 |
| C=C(COc1cccc2ncccc12)C(=O)OC [Compound 4-27] | 100 | 100 | 75 | 100 | 0 | 50 |
| C=C(COc1ccc(OC)cc1)C(=O)OC [Compound 4-20] | 100 | 100 | 100 | 100 | 0 | 0 |
| C=C(COc1cccc(Cl)c1)C(=O)OC [Compound 4-14] | 100 | 100 | 100 | 100 | 25 | 75 |
| C=C(COc1ccc(C)cc1)C(=O)OC [Compound 4-18] | 100 | 100 | 75 | 100 | 25 | 100 |
